Test results published in the CheMixHub ionic liquid set.

Assay: xn = mol fraction of the nth substance listed

C[N+](C)(C)Cc1ccccc1.[Cl-] + O=C([O-])c1ccccc1O.[Na+] + O
viscosity [mPa·s], 100 kPa
Conditions | 298.15 K | 303.15 K | 308.15 K | 313.15 K | 318.15 K
x1 = 9.698e-05, x2 = 0.001545 | 0.924 | 0.833 | 0.75 | 0.651 | 0.564
x1 = 9.701e-05, x2 = 0.00127 | 0.916 | 0.827 | 0.744 | 0.648 | 0.561
x1 = 9.703e-05, x2 = 0.0009982 | 0.91 | 0.821 | 0.739 | 0.642 | 0.557
x1 = 9.706e-05, x2 = 0.0007245 | 0.905 | 0.816 | 0.734 | 0.637 | 0.551
x1 = 9.709e-05, x2 = 0.0004525 | 0.9 | 0.811 | 0.729 | 0.633 | 0.547
x1 = 9.711e-05, x2 = 0.0001803 | 0.896 | 0.807 | 0.725 | 0.629 | 0.543
x1 = 0.0002915, x2 = 0.001548 | 0.926 | 0.836 | 0.753 | 0.648 | 0.56
x1 = 0.0002916, x2 = 0.001 | 0.915 | 0.824 | 0.742 | 0.639 | 0.552
x1 = 0.0002916, x2 = 0.001272 | 0.921 | 0.83 | 0.747 | 0.644 | 0.556
x1 = 0.0002917, x2 = 0.0007258 | 0.909 | 0.819 | 0.736 | 0.635 | 0.547
x1 = 0.0002918, x2 = 0.0004533 | 0.903 | 0.814 | 0.732 | 0.63 | 0.544
x1 = 0.0002919, x2 = 0.0001807 | 0.898 | 0.809 | 0.727 | 0.625 | 0.539
x1 = 0.0004867, x2 = 0.001551 | 0.932 | 0.843 | 0.759 | 0.664 | 0.577
x1 = 0.0004868, x2 = 0.001275 | 0.926 | 0.836 | 0.753 | 0.659 | 0.572
x1 = 0.0004869, x2 = 0.001002 | 0.919 | 0.831 | 0.748 | 0.654 | 0.568
x1 = 0.0004871, x2 = 0.0007272 | 0.914 | 0.825 | 0.743 | 0.648 | 0.563
x1 = 0.0004872, x2 = 0.0004542 | 0.907 | 0.82 | 0.737 | 0.644 | 0.558
x1 = 0.0004873, x2 = 0.000181 | 0.903 | 0.815 | 0.732 | 0.64 | 0.554

CC[n+]1ccn(C)c1.O=S(=O)([N-]S(=O)(=O)C(F)(F)F)C(F)(F)F + O=S(=O)([N-]S(=O)(=O)C(F)(F)F)C(F)(F)F.[Li+]
101 kPa, x1 = 1
Conditions | electrical conductivity [S/m] | viscosity [mPa·s]
288.15 K | 0.611 | –
298.15 K | 0.883 | –
313.15 K | – | 19.26
333.15 K | 2.18 | –
343.15 K | – | 9.46

CC[n+]1ccn(C)c1.O=S(=O)([N-]S(=O)(=O)C(F)(F)F)C(F)(F)F + O=S(=O)([O-])C(F)(F)F.[Li+]
101 kPa, x1 = 1
Conditions | electrical conductivity [S/m]
288.15 K | 0.611
298.15 K | 0.883
333.15 K | 2.18

C[N+](C)(C)Cc1ccccc1.[Cl-] + OCC(O)CO
Conditions | electrical conductivity, 298 K [S/m] | viscosity, 288.15 K [mPa·s] | viscosity, 308 K [mPa·s]
100 kPa, x1 = 0.25 | – | 1875 | –
101.13 kPa, x1 = 0.5 | 0.069 | – | 80

CCCCCCCCCCCC[P+](CCCC)(CCCC)CCCC.N#Cc1ccc[n-]1 + OCCN(CCO)CCO
100 kPa
Conditions | electrical conductivity [S/m] | viscosity [mPa·s]
293.15 K, x1 = 0.001 | 0.0001 | –
293.15 K, x1 = 0.015 | 0.0027 | –
293.15 K, x1 = 0.035 | 0.0034 | 1037
293.15 K, x1 = 0.121 | – | 1056
293.15 K, x1 = 0.538 | 0.0049 | 770
293.15 K, x1 = 1 | 0.0082 | 567
298.15 K, x1 = 0.035 | – | 670
298.15 K, x1 = 0.325 | – | 623
298.15 K, x1 = 0.755 | – | 477
298.15 K, x1 = 1 | – | 389
303.15 K, x1 = 0.017 | – | 436
303.15 K, x1 = 0.054 | – | 439
303.15 K, x1 = 0.325 | – | 421
303.15 K, x1 = 0.755 | – | 336
303.15 K, x1 = 1 | – | 297
313.15 K, x1 = 0.096 | – | 217
313.15 K, x1 = 0.325 | – | 209

CC[n+]1ccn(C)c1.F[B-](F)(F)F + OCCO
Conditions | viscosity [mPa·s]
293.15 K, 100 kPa, x2 = 0.6954 | 14.9
298.15 K, 100 kPa, x2 = 0.283 | 19.8
298.15 K, 100 kPa, x2 = 0.4435 | 15.1
303.15 K, 100 kPa, x2 = 0 | 34.5
303.15 K, 101 kPa, x1 = 0.4011 | 9.88
313.15 K, 100 kPa, x2 = 0.4435 | 9.71
313.15 K, 101 kPa, x1 = 0.4011 | 7.3
323.15 K, 100 kPa, x2 = 0.4435 | 7.57
323.15 K, 100 kPa, x2 = 0.5876 | 6.34
333.15 K, 100 kPa, x2 = 0.4435 | 6.08
333.15 K, 100 kPa, x2 = 0.5237 | 5.44
333.15 K, 100 kPa, x2 = 0.8751 | 4.42
333.15 K, 101 kPa, x1 = 0.0993 | 4.28
333.15 K, 101 kPa, x1 = 0.2001 | 4.08
343.15 K, 100 kPa, x2 = 0.4435 | 5.01
343.15 K, 100 kPa, x2 = 0.5876 | 4.13
353.15 K, 100 kPa, x2 = 0 | 9.58
353.15 K, 100 kPa, x2 = 0.5876 | 3.46
353.15 K, 100 kPa, x2 = 0.6954 | 3.07
353.15 K, 100 kPa, x2 = 0.7916 | 2.9

C[N+](CCO)(CCO)CCOCCO.[Cl-] + OCCO
101 kPa, x1 = 0.3322
Conditions | viscosity [mPa·s]
283.15 K | 474
288.15 K | 335
293.15 K | 243.1
298.15 K | 179.2
303.15 K | 136.1
308.15 K | 104.7
313.15 K | 81.8
318.15 K | 65.1
323.15 K | 52.4
328.15 K | 42.78
333.15 K | 35.43
338.15 K | 29.52
343.15 K | 24.91
348.15 K | 21.24
353.15 K | 18.37

CC[n+]1ccn(C)c1.O=S(=O)([N-]S(=O)(=O)C(F)(F)F)C(F)(F)F + OCCOCCOCCOCCO
Conditions | viscosity [mPa·s]
298.15 K, 101 kPa, x2 = 0 | 32.3
